Experimental data taken from patent US20100063466A1, “ABSORBENT ARTICLE” (SCA Hygiene Products AB, priority 2006, published 2010).

Key:
[1] = Measurement of water activity of salt solutions; type: physicochemical; details: different concentrations of salt in Elga-H2O; FIG. 8
Procedure: Water activity is measured as follows. The water activity meter is from Aqua Lab, Model Series 3 TE, […]. (U.S. Pat. No. 5,816,704). A specimen, a solution with different additions of different salts in Elga-H2O or synthetic urine, test liquid 2. was placed in a plastic cup. The quantity is not critical, but it is important that the bottom surface of the plastic cup is covered. The specimen is moved into the test chamber, which is closed, and the measurement commences. When the test value is stable, a green light flashes and the water activity can be read off digitally. The salts that were tested were: NaCl, KCl, NH4Cl, KC2H3O2 (K acetate), Na C2H3O2 (Na acetate).
The water activity was measured in Elga-H2O (USF Elga, distilled water) and synthetic urine, test liquid 2.
The water activity was measured according to method 4, but with different concentrations of salt in Elga-H2O.

[2] = system: E. faecalis; details: FIG. 4
Excerpt: (§1) Absorbent test specimens were punched out from an absorbent core produced in a test plant. A standard method for mat-forming of a core was used during production of the core in the test plant. The absorbent test specimen included a homogeneous mixture of fluff pulp, 0.72 g Weyerhauser pulp (NB 416) and 0.48 g of superabsorbent polymer (SAP) (Degussa SXM9135). The absorbent core, was compressed to a bulk of around 8-10 cm^3/g. The size of the punched-out test items was 5 cm in diameter, the weight was about 1.2 g.
(§2) 16 ml (corresponding to a maximum absorption capacity of a test specimen according to method 1) of test liquid 1 containing the bacteria were added to a test specimen placed in plastic tubs, and a lid was fitted on the tubs. The tubs were turned upside down and incubated in a warm cabinet at 35° C. After incubation for 0, 6 and 12 hours, the test samples were placed in a plastic bag with peptone water and the content was homogenized (agitated and worked up) in a stomacker for 3 minutes. The homogenate was diluted in dilution tubes with peptone water and a microbiological culture was spread on agar plates. Slanetz Bartley agar was used for E. faecalis, and Drigalski agar for E. coli and P. mirabilis. The specimens were incubated at 35° C. for 1-2 days before the colonies were counted and the log CFU/ml calculated. Control tests were also carried out with absorbent cores without NaCl.
(§3) Bacteria were cultured in nutrient broth and diluted to the desired concentration of about Log 3.3 in test liquid 1 (method 4). Absorbent test specimens were produced according to method 1. 29 (high), 22 (medium) and 12 (low) % by weight NaCl (% dry) were added to the core, corresponding to 3 (high), 2 (medium) and 1 (low) % by weight (% wet) in the wet product. This proportion also applies to the other examples. The bacterial growth was measured according to method 3.

[3] = system: P. mirabilis; details: FIG. 4
Excerpt: as §1, §2, §3

[4] = system: E. coli; details: FIG. 4
Excerpt: as §1, §2, §3

[5] = system: Proteus mirabilis; details: 29% by weight of NaCl (% dry); after 6 and 8 hours; FIG. 5
Excerpt: as §1
(§4) Absorbent test specimens were produced according to method 1.
as §4

[6] = 3% added salt (% wet), NaCl high, after 12 hours, 35° C, test liquid 1
[7] = 29, 22 and 12 % by weight NaCl (% dry), after 6 and 12 hours

| Compound | water activity as the concentrations of salt increase [1] | growth of E. faecalis [2, 6] | growth of E. faecalis compared with the control tests [2, 7] | growth of P. mirabilis [3, 6] | growth of P. mirabilis compared with the control tests [3, 7] | growth of E. coli [4, 6] | growth of E. coli compared with the control tests [4, 7] | development of NH3, ranking among specimens [5] |
| --- | --- | --- | --- | --- | --- | --- | --- | --- |
| Cl.N [NH4Cl] | drops | – | – | – | – | – | – | – |
| CC(=O)[O-].[Na+] [Na acetate] | drops | – | – | – | – | – | – | – |
| [Cl-].[Na+] [NaCl] | drops | < 5.5 log CFU/ml | lower | < 5.5 log CFU/ml | lower | < 5.5 log CFU/ml | lower | lowest |
